The source of these data is patent US10252997B2, “Monocyclic compound” (Takeda Pharmaceutical Company Limited, priority 2015, dated 2019).

The structures appear in SMILES notation.

In one assay the test system is HCT116 cells. In words: Growth inhibitory activity on HCT116 cell (CellTiter-Glo). As to conditions: Homo sapiens, HCT-116, 72 h; test compound 1 μM, 3 days; read-out: HCT116 cell proliferation inhibitory rate (%) at 1 μM. The assay is classed as cell-based. The procedure:
The growth inhibitory activity of the compound on HCT116 cell was evaluated by the following method.
HCT116 cells were seeded in a 384 well blackplate at 900 cells/[…]/well, and maintained in an assay medium (RPMI medium (Wako) containing 2% fetal bovine serum, 50 Unit/mL penicillin and […] streptomycin (Invitrogen)). The next day, a test compound dissolved in dimethyl sulfoxide (DMSO) was diluted with the assay medium, and the obtained compound solution was added by […] to each well of a plate containing HCT116 cells, and incubated at 37° C., 5% CO2 (test compound addition group).
A similar reaction was performed without adding a test compound (test compound non-addition group).
Furthermore, a similar reaction was performed under the conditions without adding HCT116 cell and a test compound (control group).
After 3 days, […] of a CellTiter-Glo reagent (Promega KK) was added to the well, and the mixture was stirred for 10 min. Thereafter, the luminescence value of each well was measured by the EnVision™ multilabel counter (Perkin Elmer Inc.).
The HCT116 cell proliferation inhibitory rate (%) of the test compound was determined by the following calculation formula. (1−(luminescence of test compound addition group−luminescence of control group)÷(luminescence of test compound non-addition group−luminescence of control group))×100
The HCT116 cell proliferation inhibitory rates (%) of the test compound (1 μM) are shown below.
(ATP-based viability assays read luminescence as a measure of living cells.)

For a further assay, the target named is T1, Human ACC1 (Homo sapiens, UniProt Q13085).
T1 construct: His6 (from vector pFAST-BacHTc; purified on Ni-NTA) (N); made in house; host or cells: SF-9 insect cells, recombinant baculovirus BAC-ACC1
In words: Measurement of ACC1 inhibitory activity (Malonyl-CoA produced, RapidFire-mass spectrometry). The assay is classed as biochemical. As to conditions: 10 μM of the test compound; read-out: ACC1 inhibitory rate (%) at 10 μM. The procedure:
(1) Cloning of Human ACC1 Gene and Preparation of Recombinant Baculovirus
Human ACC1 gene was cloned by PCR using a human liver cDNA library (Clontech) as a template and Primer 1 and Primer 2 shown below. Primer 1 and Primer 2 were prepared by adding SalI, NotI restriction enzyme recognition sequences based on the information of the base sequence of human ACC1 gene (Genbank Accession U19822).
PCR was performed using Pyrobest DNA polymerase (TAKARA BIO INC.). The obtained PCR product was cloned to pT7 Blue vector (Novagen) and after confirmation of the base sequence, digested with restriction enzymes SalI and […]. The obtained DNA fragment was inserted into pFAST-BacHTc (Invitrogen) digested with restriction enzymes SalI and […] to give expression plasmid ACC1/pFAST-BacHTc.
Using the expression plasmid ACC1/pFAST-BacHTc and BAC-TO-BAC Baculovirus Expression System (Invitrogen), virus stock BAC-ACC1 of recombinant Baculovirus was prepared.
(2) Preparation of ACC1 Protein
SF-9 cells (Invitrogen) were inoculated to a medium (10 L) for insect cells (Sf-900IISFM medium (Invitrogen) containing 5% fetal bovine serum (Trace), 50 mg/L Gentamicin (Wako Pure Chemical Industries, Ltd.) and 0.1% Pluronic F-68 (Invitrogen)) at 1.0×10^6 cells/mL, and cultured with shaking in Wave Bioreactor (GE Healthcare) at 27° C., 20 rpm, rocking angle 100, oxygen concentration 30%.
On day 2 of the culture, recombinant Baculovirus BAC-ACC1 was added, and the cells were cultured for 3 days. The culture medium was centrifuged at 4000×g for 10 min to give virus-infected cells. The cells were washed with phosphate buffered saline (Invitrogen) and centrifuged under the same conditions. The obtained cells were cryopreserved at −80° C.
The cryopreserved cells were thawed in ice, and suspended in 800 mL of 25 mM HEPES buffer (pH 7.5) containing 10% Glycerol, 0.3 M NaCl, 1 mM EDTA, 25 mM Sodium β-Glycerophosphate and 1 mM Sodium Orthovanadate, and supplemented with Complete Protease Inhibitor (Roche). The obtained suspension was homogenized two times in a polytron homogenizer (Kinematica) at 20,000 rpm for 20 sec. The obtained cell disruption solution was clarified by centrifugation at 186,000×g for 60 min, and the supernatant was passed through Ni-NTA Superflow Cartridges (5 mL) (QUIAGEN). Furthermore, it was washed with 25 mM HEPES buffer (pH 7.5) containing 20 mM Imidazole and 0.3 M NaCl, and eluted with 25 mM HEPES buffer (pH 7.5) containing 250 mM Imidazol and 0.3 M NaCl. The eluate was concentrated by Amicon Ultra-15 (Nihon Millipore K.K.) having a fraction molecular weight of 50K. The obtained concentrate was subjected to gel filtration with 50 mM HEPES buffer (pH 7.5) containing 10 mM MgCl2, 2 mM dithiothreitol, 10 mM tripotassium citrate and 0.3 M NaCl by using HiLoad 26/60 Superdex200 prep grade gel filtration column (GE Healthcare) to give ACC1. The obtained ACC1 was cryopreserved at −80° C.
(3) Measurement of ACC1 Inhibitory Activity
ACC1 obtained in the above-mentioned (2) was diluted with an enzyme reaction buffer (50 mM HEPES (pH 7.5), 10 mM MgCl2, 10 mM Tripottasium Citrate, 2 mM Dithiothreitol, 0.001% Fatty acid free BSA) to a concentration of 0.2 μg/ml, and the mixture was added to each well of a 384 well assay plate by 10 μl. A test compound dissolved in dimethyl sulfoxide (DMSO) was diluted with an enzyme reaction buffer, and the resulting solution (5 μl) was added to each well. The mixture was incubated at room temperature for 60 min. Then, a substrate solution (50 mM KHCO3, 200 μM ATP, 200 μM Acetyl-CoA, 5 μl) was added to each well, and the mixture was reacted at room temperature for 30 min. The reaction was quenched by adding a reaction quenching liquid (1.3% formic acid, 0.2 μM Malonyl-^13C3-CoA) by 60 μL each to the obtained reaction mixtures (test compound addition group).
In addition, a reaction was performed in the same manner as above and without adding the test compound (test compound non-addition group). […]

Consider `CC(=O)NC(C)CCc1coc(-c2ccc(Oc3cccc(OCC4CC4)c3)cc2)n1` (centres unmarked) [Example 83, N-(4-(2-(4-(3-(cyclopropylmethoxy)phenoxy)phenyl)-1,3-oxazol-4-yl)butan-2-yl)acetamide], for which the inhibition at 1 µM with HCT116 cells amounted to 28%. Also, at Human ACC1, the inhibition at 10 µM amounted to 97%.

For the compound `CC(=O)N[C@@H](C)COc1cnc(-c2ccc(Oc3cccc(OCC4CC4)c3)nc2)o1` [Example 99, N-((2S)-1-((2-(6-(3-(cyclopropylmethoxy)phenoxy)pyridin-3-yl)-1,3-oxazol-5-yl)oxy)propan-2-yl)acetamide], at Human ACC1, the inhibition at 10 µM is 100%.

As for `CC(=O)NC(C)c1ccc(OCc2c(F)cc(Oc3cccc(OCC4CC4)c3)cc2F)cn1` (centres unmarked) [Example 69, N-(1-(5-((4-(3-(cyclopropylmethoxy)phenoxy)-2,6-difluorobenzyl)oxy)pyridin-2-yl)ethyl)acetamide], the inhibition at 1 µM with HCT116 cells stood at 28%. In addition, at Human ACC1, the inhibition at 10 µM was found to be 96%.

As to `CC(=O)N[C@@H](C)COc1cnc(-c2cnc(Oc3cccc(OCC4CC4)c3)cc2C)o1` [Example 106, N-((2S)-1-((2-(6-(3-(cyclopropylmethoxy)phenoxy)-4-methylpyridin-3-yl)-1,3-oxazol-5-yl)oxy)propan-2-yl)acetamide], the inhibition at 10 µM at Human ACC1 was 98%.

On to `CC(=O)NC(C)c1cnc(OCc2ccc(Oc3cccc(OCC4CC4)c3)cc2F)cn1` (centres unmarked) [Example 35, N-(1-(5-((4-(3-(cyclopropylmethoxy)phenoxy)-2-fluorobenzyl)oxy)pyrazin-2-yl)ethyl)acetamide], for which, on Human ACC1, the inhibition at 10 µM worked out at 78%.

For the compound `CC(=O)N[C@@H](C)COc1cnc(-c2ccc(Oc3cccc(OCC4CC4)c3)cc2)o1` [Example 30, N-((2S)-1-((2-(4-(3-(cyclopropylmethoxy)phenoxy)phenyl)-1,3-oxazol-5-yl)oxy)propan-2-yl)acetamide], in the assay on HCT116 cells, the inhibition at 1 µM worked out at 28%. The inhibition at 10 µM at Human ACC1 was determined as 99%.

As to `CC(=O)NC(C)CCc1ccn(-c2ccc(Oc3cccc(OCC4CC4)c3)cc2)n1` (centres unmarked) [Example 48, N-(4-(1-(4-(3-(cyclopropylmethoxy)phenoxy)phenyl)-1H-pyrazol-3-yl)butan-2-yl)acetamide], the inhibition at 1 µM in the assay on HCT116 cells was found to be 14%. Also, the inhibition at 10 µM on Human ACC1 was 96%.

On to `CC(=O)NC(C)c1cnc(OCc2c(F)cc(Oc3cccc(OCC4CC4)c3)cc2F)cn1` (centres unmarked) [Example 43, N-(1-(5-((4-(3-(cyclopropylmethoxy)phenoxy)-2,6-difluorobenzyl)oxy)pyrazin-2-yl)ethyl)acetamide], for which the inhibition at 10 µM on Human ACC1 stood at 94%.

Consider `CC(=O)NC(C)c1ccc(OCc2c(F)cc(Oc3cccc(OCC4CC4)c3)cc2F)nc1` (centres unmarked) [Example 68, N-(1-(6-((4-(3-(cyclopropylmethoxy)phenoxy)-2,6-difluorobenzyl)oxy)pyridin-3-yl)ethyl)acetamide], for which the inhibition at 1 µM with HCT116 cells is 25%. For the same compound, the inhibition at 10 µM on Human ACC1 was 96%.

In the case of `CC(=O)NC(C)c1ccc(OCc2ccc(Oc3cccc(OCC4CC4)c3)cc2F)cc1` (centres unmarked) [Example 19, N-(1-(4-((4-(3-(cyclopropylmethoxy)phenoxy)-2-fluorobenzyl)oxy)phenyl)ethyl)acetamide], in the assay with HCT116 cells, the inhibition at 1 µM is 15%. On Human ACC1, the inhibition at 10 µM was found to be 83%.

On to `C[C@@H](COc1cnc(-c2ccc(Oc3cccc(OCC4CC4)c3)nc2)o1)NC(N)=O` [Example 101, 1-((2S)-1-((2-(6-(3-(cyclopropylmethoxy)phenoxy)pyridin-3-yl)-1,3-oxazol-5-yl)oxy)propan-2-yl)urea], for which the inhibition at 10 µM at Human ACC1 is 98%.

Regarding `CC(=O)NC(C)c1cnc(OCc2c(F)cc(Oc3cccc(OCC4CC4)c3)cc2F)c(F)c1` (centres unmarked) [Example 73, N-(1-(6-((4-(3-(cyclopropylmethoxy)phenoxy)-2,6-difluorobenzyl)oxy)-5-fluoropyridin-3-yl)ethyl)acetamide], in the assay with HCT116 cells, the inhibition at 1 µM is 31%. Also, on Human ACC1, the inhibition at 10 µM amounted to 98%.

As to `CC(=O)NC(C)CCc1cnc(-c2ccc(Oc3cccc(OCC4CC4)c3)cc2)o1` (centres unmarked) [Example 32, N-(4-(2-(4-(3-(cyclopropylmethoxy)phenoxy)phenyl)-1,3-oxazol-5-yl)butan-2-yl)acetamide], in the assay with HCT116 cells, the inhibition at 1 µM was found to be 30%. In addition, on Human ACC1, the inhibition at 10 µM turned out to be 97%.

`CC(=O)NC(C)c1ccc(OCc2ccc(Oc3cccc(OCC4CC4)c3)cc2F)nc1` (centres unmarked) [Example 42, N-(1-(6-((4-(3-(cyclopropylmethoxy)phenoxy)-2-fluorobenzyl)oxy)pyridin-3-yl)ethyl)acetamide]: in the assay with HCT116 cells, the inhibition at 1 µM was determined as 10%. At Human ACC1, the inhibition at 10 µM was determined as 85%.

As for `CC(=O)N[C@@H](C)COc1cc(-c2ccc(Oc3cccc(OCC4CC4)c3)cc2)no1` [Example 67, N-((2S)-1-((3-(4-(3-(cyclopropylmethoxy)phenoxy)phenyl)-1,2-oxazol-5-yl)oxy)propan-2-yl)acetamide], the inhibition at 1 µM in the assay with HCT116 cells amounted to 29%. Further, the inhibition at 10 µM on Human ACC1 came out at 92%.

As for `C[C@@H](COc1cnc(-c2ccc(Oc3cccc(OCC4CC4)c3)cn2)o1)NC(N)=O` [Example 104, 1-((2S)-1-((2-(5-(3-(cyclopropylmethoxy)phenoxy)pyridin-2-yl)-1,3-oxazol-5-yl)oxy)propan-2-yl)urea], the inhibition at 10 µM at Human ACC1 turned out to be 95%.

`CC(=O)NC(C)CC(=O)c1cnn(-c2ccc(Oc3cccc(OCC4CC4)c3)nc2)c1` (centres unmarked) [Example 103, N-(4-(1-(6-(3-(cyclopropylmethoxy)phenoxy)pyridin-3-yl)-1H-pyrazol-4-yl)-4-oxobutan-2-yl)acetamide]: at Human ACC1, the inhibition at 10 µM amounted to 98%.

Turning to `CC(=O)NC(C)CC(=O)c1cnc(-c2ccc(Oc3cccc(OCC4CC4)c3)nc2)o1` (centres unmarked) [Example 105, N-(4-(2-(6-(3-(cyclopropylmethoxy)phenoxy)pyridin-3-yl)-1,3-oxazol-5-yl)-4-oxobutan-2-yl)acetamide], the inhibition at 10 µM on Human ACC1 amounted to 100%.

Turning to `CC(=O)N[C@@H](C)COc1cnc(-c2ccc(Oc3cccc(OCC4CC4)c3)cn2)o1` [Example 102, N-((2S)-1-((2-(5-(3-(cyclopropylmethoxy)phenoxy)pyridin-2-yl)-1,3-oxazol-5-yl)oxy)propan-2-yl)acetamide], the inhibition at 10 µM at Human ACC1 amounted to 100%.
